Measurements reported in patent US20220267394A1, “COMPOUNDS FOR INDUCING TISSUE FORMATION AND USES THEREOF” (HISTIDE AG, priority 2015, published 2022).
Where no end group is shown, it is not given here.

Test system: hMSCs
Assay: Loss of stemness: STRO-1 expression by immunostaining
Format: cell-based, human
Procedure: The cells were first fixed for 20 min with 4% paraformaldehyde/PBS at 4° C. After fixation, the cells were permeabilized in PBS containing 1% Triton X-100 for 15 min. Runx2, Osterix, Stro-1, Vinculin, Phalloidin, Osteopontin, Sox2, Sox9 antibodies were visualized by treating the cells with 1% (v/v) specific monoclonal antibodies for 1 hour at 37° C. Then the samples were incubated with Alexa Fluor® 568 or 647 (F(ab′)2 fragment of IgG(H+L)) during 30 min at room temperature. The cell nuclei were counterstained in 20 ng/mL DAPI for 10 min at room temperature.
For this type of quantification the freeware image analysis ImageJ® software was used. The raw image was first converted to an 8-bit file, and then the unsharp mask feature was used (settings 1:0.2) to remove the image background (rolling ball radius 10). After smoothing, the resulting image, which appears similar to the original photomicrograph but with minimal background, was then converted to a binary image by setting a threshold. Threshold values were determined empirically by selecting a setting, which gave the most accurate binary image for a subset of randomly selected photomicrographs. The cell area was determined by manual delineation on raw fluorescent images. Total contact area and mean contact area per cell were calculated by “analyse particules” in ImageJ®. A minimum of 30 cells per condition were analyzed. Stro-1, CD-34+, and CD-105 expressions were determined using this procedure.
hMSCs were cultured on conventional cell culture plastic plates with or without the presence in the cell culture media of different GFR-binding compounds as described herein (SEQ ID NO: 50 to 88) in solution. […] This was probed by Stro-1 immunostaining after cell fixation as described in the Methods section. The quantification of Stro-1 positive contact numbers and areas was performed as described in the Methods section. A minimum of 30 cells per condition were analyzed. Stro-1 positive marrow cells are multipotential and capable of differentiating into multiple mesenchymal lineages including stromal cells with a phenotype resembling vascular smooth muscle cells that can support hematopoiesis, adipocytes, osteoblasts, and chondrocytes.
Using the method detailed in the description, the RMSD of 57 previously reported peptide sequences have been determined (Table 6) and correlated with the expression of STRO-1 in solution. […] One should note that it is commonly admitted that the expression of STRO-1 in a cell is indicative of a cell that is in a substantially non-differentiated state and the decrease of its expression of at least about 20% is indicative of a cell that has started a process of differentiation but which may not result in the differentiation of the cell. A decrease of more than 50% would be indicative of the presence of a significant shift towards a differentiated state. A decrease of more than 70% would be indicative of the presence of a very important shift towards a differentiated state. A sustained decrease (e.g. for at least 96 h) of more than 50% or 70% would be indicative of the presence of an even more important shift towards a differentiated state.
Likewise, using the method detailed in the description, the RMSD of 75 GFR-binding peptide sequence representatives of the invention have been determined (Table 8) and correlated with the expression of STRO-1. SEQ ID NO: 1 to 49 were tested in combination with a bioactive carrier as defined above in the Examples Section (i.e. titanium, ceramics, collagen, etc. . . . ), whereas SEQ ID NO: 2242 to 2267 were tested in solution.

[1] = Table 8, SEQ ID NO: 1 to 49 tested in combination with a bioactive carrier (titanium, ceramics, collagen, etc.)
[2] = Table 6, previously reported peptides in solution, 400 ng/mL
[3] = Table 8, SEQ ID NO: 2242 to 2267 tested in solution

Row | Substance | STRO-1 expression (%) [1] | STRO-1 expression (%) [2] | also measured
1 | 35 (GTPGPRNVQCRPTQVQLSAISTLYLAAALKNYQTLE; GFR-binding peptide) [compound 35] | 28% | – | –
2 | 8 (CAPTQLSPISVLYKDDSSNVILKYHYTLEDH; GFR-binding peptide) [compound 8] | 19% | – | –
3 | 11 (CPKPSSAPTQLNAISMLYFGGGGGGGLKKYRNMVVRA; GFR-binding peptide) [compound 11] | 31% | – | –
4 | 2181 (VPTKLSPISILYKDDMGVPTYKFKYEGMSVAECGCR; Peptide reported in US20140056902, SEQ ID NO:88) [compound 2181] | – | 82% | –
5 | 2249 (TPTSSSPINTLYFDDMGVPTYGKIPSSVVD; GFR-binding peptide) [compound 2249] | – | – | STRO-1 expression (%) [3]: 25%
6 | 2247 (VPTSSSPISTLYIDKGVVTYLKYHYSSVAE; GFR-binding peptide) [compound 2247] | – | – | STRO-1 expression (%) [3]: 20%
7 | 2255 (SRVAARSVKMAKVGGGGGGGKEVQVAAEEH; GFR-binding peptide) [compound 2255] | – | – | STRO-1 expression (%) [3]: 31%
8 | 45 (CAAPASSSVPARLSPISLLYIDAANNVVYKQYEDM; not fully specified; ends and bridges not checked) [compound 45] | 24% | – | –
9 | 2250 (VPTVVSPISMLYIDDMGVPTYKQYEVVVVE; GFR-binding peptide) [compound 2250] | – | – | STRO-1 expression (%) [3]: 26%
10 | 2180 (VPTKLSPISILYLDKGVVTYKFKYEGMSVAECGCR; Peptide reported in US8969040, SEQ ID NO:90) [compound 2180] | – | 80% | –
11 | 28 (GTPGPAPTKLSAISMLYLDSSNNVILKKYR; GFR-binding peptide) [compound 28] | 19% | – | –
12 | 2194 (KGSEYEKLVVSGITQVYQSSLSWHGCKSCCEVQVXNLXILIRLYDVHYYN; Peptide reported in US20040172684, SEQ ID NO:47782; MOD_RES (35), (38): Xaa is A) [compound 2194] | – | 88% | –
13 | 2169 (IKSPARHSAPTHQEPLP; Peptide reported in WO2013040142, SEQ ID NO:3157977) [compound 2169] | – | 98% | –
14 | 31 (GTPGPPKPSSAPTQLNAISMLYFGGGGGLKKYRDMQHN; GFR-binding peptide) [compound 31] | 31% | – | –
15 | 32 (WWFWGKASSVPTELSPISTLYKDENEKVVLKYHYDMVVEGSGSR; not fully specified; ends and bridges not checked) [compound 32] | 21% | – | –
16 | 2213 (KPCCAPTQLSAISVLYFDDSSNVILKKYRNMVVRACGCR; Peptide reported in US20050250936, SEQ ID NO:123) [compound 2213] | – | 80% | –
17 | 2260 (VPQRLEPLTILYYDAANNVVEQLSNDMVKS; GFR-binding peptide) [compound 2260] | – | – | STRO-1 expression (%) [3]: 23%
18 | 2167 (LNEVLRFCGIQVPEGDEPLTY; Peptide reported in WO2013040142, SEQ ID NO:89702) [compound 2167] | – | 99% | –
19 | 2179 (TLXPIVSSXNPSPISFRXIKILLHDLEVVPFPKSRVR; Peptide reported in US20040031072, SEQ ID NO:272830; MOD_RES (3), (9), (18): Xaa is A) [compound 2179] | – | 84% | –
20 | 2190 (VHLLKPHAVPKACCAPTKLSATSVLYYDSSNNVILRKHRNMVVRACGCH; Peptide reported in US5688678, SEQ ID NO:8) [compound 2190] | – | 88% | –
21 | 33 (WWFWGASSAVSQELSAISMLYLGGGLKNYQDMQHN; GFR-binding peptide) [compound 33] | 28% | – | –
22 | 2207 (CKIPKPSSAPTELSAISMLYL; Peptide reported in WO2009151288, SEQ ID NO:1) [compound 2207] | – | 78% | –
